# Test results published in ChEMBL document CHEMBL2429821, “A Casein kinase 1/Checkpoint kinase 1 pyrazolo-pyridine protein kinase inhibitor as novel activator of the p53 pathway” (Bioorg Med Chem Lett, 2013).
# Key:
# [1] = target: Mitogen-activated protein kinase 9 (Homo sapiens) (UniProt P45984); assay: Inhibition of human JNK2 assessed as residual activity at 1 uM relative to control
# [2] = target: T1, Serine/threonine-protein kinase D1 (Homo sapiens) (UniProt Q15139); assay: Inhibition of human PKD1 assessed as residual activity at 10 uM relative to control
# T1 sequence (whole entry): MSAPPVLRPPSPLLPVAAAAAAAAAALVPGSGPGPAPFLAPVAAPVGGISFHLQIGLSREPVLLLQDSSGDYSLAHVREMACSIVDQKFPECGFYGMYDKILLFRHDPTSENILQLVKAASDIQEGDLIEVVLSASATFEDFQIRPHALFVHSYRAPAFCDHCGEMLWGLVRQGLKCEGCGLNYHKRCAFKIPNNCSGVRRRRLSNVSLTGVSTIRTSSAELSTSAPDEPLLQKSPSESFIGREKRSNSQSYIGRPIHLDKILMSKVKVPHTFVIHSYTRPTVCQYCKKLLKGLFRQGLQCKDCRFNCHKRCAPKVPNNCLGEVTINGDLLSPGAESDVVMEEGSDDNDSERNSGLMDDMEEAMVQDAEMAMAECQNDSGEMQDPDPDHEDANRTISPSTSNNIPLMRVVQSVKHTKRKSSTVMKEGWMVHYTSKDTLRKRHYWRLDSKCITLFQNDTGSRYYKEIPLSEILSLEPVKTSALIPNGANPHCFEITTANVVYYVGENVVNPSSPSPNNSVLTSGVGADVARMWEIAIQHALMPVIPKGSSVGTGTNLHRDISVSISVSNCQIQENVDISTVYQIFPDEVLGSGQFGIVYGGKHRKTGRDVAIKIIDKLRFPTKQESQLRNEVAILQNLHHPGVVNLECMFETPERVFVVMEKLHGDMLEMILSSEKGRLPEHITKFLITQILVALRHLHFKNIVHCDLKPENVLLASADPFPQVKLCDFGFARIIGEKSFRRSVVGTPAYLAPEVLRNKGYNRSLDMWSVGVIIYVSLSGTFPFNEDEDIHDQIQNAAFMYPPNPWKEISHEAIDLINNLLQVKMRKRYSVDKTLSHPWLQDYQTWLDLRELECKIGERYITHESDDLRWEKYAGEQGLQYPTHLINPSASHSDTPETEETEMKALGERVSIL
# [3] = target: T2, Protein kinase C zeta type (Homo sapiens) (UniProt Q05513); assay: Inhibition of human PKCzeta assessed as residual activity at 1 uM relative to control
# T2 sequence (whole entry): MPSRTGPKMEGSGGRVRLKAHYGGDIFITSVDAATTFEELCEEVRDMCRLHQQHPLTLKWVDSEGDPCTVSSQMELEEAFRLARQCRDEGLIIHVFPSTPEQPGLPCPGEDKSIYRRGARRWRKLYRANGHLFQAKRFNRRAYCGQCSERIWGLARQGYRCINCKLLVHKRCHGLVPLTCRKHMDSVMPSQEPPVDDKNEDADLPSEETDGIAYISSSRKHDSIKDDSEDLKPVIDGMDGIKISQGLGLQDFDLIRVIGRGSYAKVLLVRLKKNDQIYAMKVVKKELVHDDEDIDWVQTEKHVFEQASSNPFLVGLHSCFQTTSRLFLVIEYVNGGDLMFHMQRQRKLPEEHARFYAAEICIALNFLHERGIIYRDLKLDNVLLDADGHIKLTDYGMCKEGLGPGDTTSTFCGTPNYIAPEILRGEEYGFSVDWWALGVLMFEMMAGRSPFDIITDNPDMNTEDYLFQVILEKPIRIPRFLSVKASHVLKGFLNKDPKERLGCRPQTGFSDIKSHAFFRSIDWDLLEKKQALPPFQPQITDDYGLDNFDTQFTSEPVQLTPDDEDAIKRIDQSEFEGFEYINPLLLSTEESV
# [4] = target: T3, Serine/threonine-protein kinase Sgk1 (Homo sapiens) (UniProt O00141); assay: Inhibition of human SGK1 assessed as residual activity at 1 uM relative to control
# T3 sequence (whole entry): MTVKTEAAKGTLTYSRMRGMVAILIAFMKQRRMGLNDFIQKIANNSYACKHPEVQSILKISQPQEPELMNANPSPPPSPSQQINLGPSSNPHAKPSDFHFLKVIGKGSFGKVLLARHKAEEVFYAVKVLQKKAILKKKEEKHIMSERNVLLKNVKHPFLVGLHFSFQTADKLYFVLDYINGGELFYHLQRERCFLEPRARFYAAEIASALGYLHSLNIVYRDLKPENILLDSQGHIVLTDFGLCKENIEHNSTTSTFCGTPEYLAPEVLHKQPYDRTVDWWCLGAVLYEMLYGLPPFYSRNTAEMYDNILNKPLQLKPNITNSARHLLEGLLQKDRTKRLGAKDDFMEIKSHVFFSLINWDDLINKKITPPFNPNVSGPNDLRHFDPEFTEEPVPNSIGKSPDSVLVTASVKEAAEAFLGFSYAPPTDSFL
# [5] = target: T4, Serine/threonine-protein kinase Chk1 (Homo sapiens) (UniProt O14757); assay: Inhibition of human CHK1 assessed as residual activity at 10 uM relative to control
# T4 sequence (whole entry): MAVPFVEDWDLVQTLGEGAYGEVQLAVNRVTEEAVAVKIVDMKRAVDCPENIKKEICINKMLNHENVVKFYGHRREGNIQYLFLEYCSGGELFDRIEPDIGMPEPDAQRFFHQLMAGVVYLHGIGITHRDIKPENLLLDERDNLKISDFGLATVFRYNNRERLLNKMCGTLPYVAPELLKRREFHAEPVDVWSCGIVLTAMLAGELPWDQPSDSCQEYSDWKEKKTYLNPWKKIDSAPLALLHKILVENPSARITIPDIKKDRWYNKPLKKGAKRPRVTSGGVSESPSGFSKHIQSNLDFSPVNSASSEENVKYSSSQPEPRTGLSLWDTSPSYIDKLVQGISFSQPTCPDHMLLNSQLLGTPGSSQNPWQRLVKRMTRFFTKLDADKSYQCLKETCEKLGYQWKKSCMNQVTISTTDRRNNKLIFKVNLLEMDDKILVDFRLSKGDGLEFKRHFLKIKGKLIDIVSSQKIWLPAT
# [6] = target: T2, Protein kinase C zeta type (Homo sapiens); assay: Inhibition of human PKCzeta assessed as residual activity at 10 uM relative to control
# Mitogen-activated protein kinase 9 (Homo sapiens), sequence (P45984 whole entry, looked up): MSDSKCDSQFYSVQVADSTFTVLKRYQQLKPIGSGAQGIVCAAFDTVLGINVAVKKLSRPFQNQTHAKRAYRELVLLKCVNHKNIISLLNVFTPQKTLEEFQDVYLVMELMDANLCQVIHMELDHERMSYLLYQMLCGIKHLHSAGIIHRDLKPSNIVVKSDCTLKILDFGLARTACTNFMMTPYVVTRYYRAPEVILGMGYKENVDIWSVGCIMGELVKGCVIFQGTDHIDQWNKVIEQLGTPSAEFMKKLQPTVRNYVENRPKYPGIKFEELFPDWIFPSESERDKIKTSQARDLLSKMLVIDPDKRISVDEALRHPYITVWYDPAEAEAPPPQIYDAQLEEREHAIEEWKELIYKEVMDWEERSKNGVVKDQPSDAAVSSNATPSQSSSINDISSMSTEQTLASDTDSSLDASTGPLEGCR
compound,measurement,setting,value
CC(=O)Nc1cccc(-c2cnc3[nH]nc(C)c3c2)c1,Activity,[1],98.5%
same,Activity,[2],44.3%
same,Activity,[3],120%
same,Activity,[4],105%
same,Activity,[5],4.34%
same,Activity,[6],84.2%
CC(=O)Nc1nccc(-c2c(-c3ccccc3)noc2C)n1,Activity,[1],85.2%
same,Activity,[2],75.3%
same,Activity,[3],93.7%
same,Activity,[4],57.5%
same,Activity,[5],105%
same,Activity,[6],82%
CCCC(=O)Nc1n[nH]c2ncc(-c3cccnc3)cc12,Activity,[1],99%
same,Activity,[2],99%
same,Activity,[3],84%
same,Activity,[4],108%
same,Activity,[5],82%
same,Activity,[6],77%
